# From US5158970A, “Proline derivatives” (Kabushiki Kaisha Yakult Honsha, priority 1989, dated 1992)
# Residues, ends and D or L forms follow the SMILES beside them. *: point of attachment. Cbz = O=C(OCc1ccccc1)*
# Assays:
# [1] = prior art; cited from earlier work
# proline endopeptidase = details: prior art; cited from earlier work
# [2] = tested on: scopolamine-induced amnesia; test: step-down passive avoidance test, anti-amnestic activity on scopolamine-induced amnesia; assay type: in vivo, male rats of Wister strain; details: scopolamine 0.5 mg/kg i.p., retention 24 hours after acquisition, relative to scopolamine-treated group
# Source text: A step-down passive avoidance test on rats was used as the method of assay for anti-amnestic activity to estimate the preventive effect of prolylendopeptidase inhibitors on scopolamine-induced amnesia. This method of assay involved application of electric shocks to animals upon their stepping down on a grid floor to see whether they have learned that such shocks can be avoided by staying on a platform. A passive avoidance test chamber used in this experiment was comprised of an electrifiable grid floor (20 cm in length and 22 cm in width) and a platform (20 cm in length, 15 cm in width and 5 cm in height) placed at the right back corner thereof.
# 5-Weeks-old male rats of Wister strain weighing 100-150 g (purchased from Japan Clea Co., Ltd.) were used in the test.
# Each test compound used in the doses indicated in Tables 2-3 was dissolved or suspended in 4% gum arabic-containing distilled water (1 ml) and administered p.o. one hour before the commencement of acquisition trial. In addition, scopolamine hydrobromide dissolved in saline (0.5 ml) was intraperitoneally administered in a dose of 0.5 mg/kg 30 minutes before the acquisition trial to prepare experimental animal models of amnesia.
# In the acquisition trial, the rat was placed on the platform in the test chamber and, when the animal stepped down on the grid floor, the electric current of 5.0 mA was immediately sent to the grid floor continuously until the animal went up on the platform If the rat having gone up on the platform stayed there for more than 30 seconds, the animal was regarded to have learned the situation and taken out of the test chamber. A total time of measurement in the acquisition trial was limited to 300 seconds as maximum, and the time elapsing until the rat learned the situation was measured. In order to avoid any significant difference in the rats, those which took more than 300 seconds for the learning were excluded from the experiment.
# The retention trial was carried out 24 hours after the acquisition trial. In this trial, the rat was placed again on the platform in the test chamber, the time elapsing until the animal stepped down onto the grid floor (the step-down latency) was measured.
# In each of these tables they are indicated as relative step-down latency, shown by each test compound-treated group in the retention trial, to step-down latency for scopolamine-treated group (i.e. test compound-treated group's step-down latency/scopolamine-treated group's step-down latency).
# prolylendopeptidase = prolylendopeptidase (Elizabethkingia meningoseptica, UniProt P27028); test: biochemical; assay type: biochemical; details: substrate 2.5 mM Z-glycyl-proline-β-naphthylamide; pH 7.0; 35° C. for 10 minutes; read-out: inhibition constant (Ki)
# Procedure: The compounds of the invention obtained in the foregoing Examples were assayed for their prolylendopeptidase inhibition activity. This assay for prolylendopeptidase inhibition was carried out in accordance with the method of Yoshimoto and Tsuru (Yoshimoto, T. and Tsuru, D., Agr. Biol. Chem. Vol. 42, 2417, 1978). The corresponding number of test tubes to the number of the compounds to be tested were prepared and 2.5 mM Z-glycyl-proline-β-naphthylamide (0.25 ml), 0.1 M phosphate buffer (pH 7.0, 0.99 ml) and a solution of one of the peptides of the invention (0.1 ml) were placed in each test tube and warmed at 37° C. for 3 minutes. 0.1 ml of solution of propylendopeptidase (0.2 unit/ml) was added to each test tube. After reaction at 35° C. for 10 minutes, 1 M acetate buffer containing Triton X-100 (pH 4.0) was added to a final concentration of 10% and after the mixture was left to stand at room temperature for 15 minutes the absorbance (a) at 410 nm was measured.
# The above-mentioned procedure was followed in the same manner but using buffers only in place of the solution of each compound of the invention, and the absorbance (b) was measured.
# [3] = Table 2, 5 mg/kg p.o., **p < 0.01 (Mann-Whitney)
# Chain of prolylendopeptidase (P27028 21-705): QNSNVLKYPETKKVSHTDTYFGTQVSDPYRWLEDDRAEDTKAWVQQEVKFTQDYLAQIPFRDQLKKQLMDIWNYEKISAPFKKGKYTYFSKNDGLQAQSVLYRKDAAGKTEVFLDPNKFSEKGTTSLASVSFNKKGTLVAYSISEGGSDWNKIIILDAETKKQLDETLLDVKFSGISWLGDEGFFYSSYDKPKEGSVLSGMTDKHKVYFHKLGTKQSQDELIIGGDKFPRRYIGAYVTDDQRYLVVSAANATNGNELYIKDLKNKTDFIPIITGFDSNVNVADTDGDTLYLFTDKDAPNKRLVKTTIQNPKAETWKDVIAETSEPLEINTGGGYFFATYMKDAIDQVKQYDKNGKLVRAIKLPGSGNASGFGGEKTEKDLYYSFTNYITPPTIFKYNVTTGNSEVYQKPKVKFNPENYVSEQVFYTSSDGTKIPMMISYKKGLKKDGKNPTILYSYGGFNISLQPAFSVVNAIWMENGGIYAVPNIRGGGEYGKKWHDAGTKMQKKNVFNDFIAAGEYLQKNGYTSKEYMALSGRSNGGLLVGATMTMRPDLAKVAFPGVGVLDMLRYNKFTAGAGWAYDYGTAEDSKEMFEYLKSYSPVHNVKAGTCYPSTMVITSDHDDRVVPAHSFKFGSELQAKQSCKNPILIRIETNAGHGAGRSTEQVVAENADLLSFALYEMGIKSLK
SMILES,"Relative step-down latency in retention trial (mean ± S.E.) ([2]; Table 2, 1 mg/kg p.o.)","Relative step-down latency in retention trial (mean ± S.E.) [2, 3]","Relative step-down latency in retention trial (mean ± S.E.) ([2]; Table 2, 25 mg/kg p.o.)","Relative step-down latency in retention trial (mean ± S.E.) ([2]; Table 2, 50 mg/kg p.o.)","Relative step-down latency in retention trial (mean ± S.E.) ([2]; Table 2, 100 mg/kg p.o.)",Ki (prolylendopeptidase) [µM],other results
"O=C[C@@H]1CCCN1C(=O)[C@@H]1CCCN1C(=O)OCc1ccccc1 [ZPP, Benzyloxycarbonyl-L-prolyl-L-prolinal] (Cbz-Pro-Pro-aldehyde)",2.8 ± 1.3,8.5 ± 1.6,1.4 ± 0.8,0.5 ± 0.1,1.3 ± 0.8,,anti-amnestic action [1]: anti-amnestic action; inhibitory activity to proline endopeptidase (proline endopeptidase): inhibitory activity to proline endopeptidase
"CCOC(OCC)[C@@H]1CCCN1C(=O)[C@@H]1CCCN1C(=O)CCC(=O)O [Example 12, N-succinyl-L-prolyl-L-prolinal diethyl acetal]",,,,,,370,
"CCOC(OCC)[C@@H]1CCCN1C(=O)[C@@H]1CCCN1C(=O)OCc1ccccc1 [Example 8, N-benzyloxycarbonyl-L-prolyl-L-prolinal diethyl acetal]",2.0 ± 0.5,0.9 ± 0.2,1.2 ± 0.3,0.7 ± 0.3,0.6 ± 0.3,2.2,
"CCOC(OCC)[C@@H]1CCCN1C(=O)CN(C)C(=O)CCC(=O)O [Example 14, N-succinyl-sarcosyl-L-prolinal diethyl acetal]",,,,,,1000,
COc1ccc(C(=O)N2CCCC2=O)cc1 [aniracetam],,,,,,,"Relative step-down latency in retention trial (mean ± S.E.) ([2]; Table 3, 12.5 mg/kg p.o.): 1.1 ± 0.4; Relative step-down latency in retention trial (mean ± S.E.) ([2]; Table 3, 25 mg/kg p.o.): 1.6 ± 0.6; Relative step-down latency in retention trial (mean ± S.E.) ([2]; Table 3, 50 mg/kg p.o., *p < 0.05 (Mann-Whitney)): 2.3 ± 0.6; Relative step-down latency in retention trial (mean ± S.E.) ([2]; Table 3, 100 mg/kg p.o.): 0.7 ± 0.3"
"CCOC(OCC)[C@@H]1CCCN1C(=O)[C@@H]1CCC(=O)N1C(=O)CCC(=O)O [Example 16, N-succinyl-L-pyroglutamyl-L-prolinal diethyl acetal]",,,,,,1000,
